# According to US10077261B2, “Imidazolin-5-one derivative useful as FASN inhibitors for the treatment of cancer” (Janssen Pharmaceutica NV, priority 2012, dated 2018):
# Legend:
# [1] = molecular target: T1, hFASN enzyme (full length) (Homo sapiens, UniProt P49327); experiment: Fatty Acid Synthase (FASN) inhibition scintillation proximity assay; type: biochemical; settings: for inhibition at 10 µM: read-out: Human FASN % inhibition @ 10 μM, 10 μM test compound; for IC50: read-out: Human FASN pIC50 (converted)
# T1 construct: 10 μL hFASN enzyme (full length, 300 ng, purified in house); made in house
# T1 sequence (P49327 whole entry): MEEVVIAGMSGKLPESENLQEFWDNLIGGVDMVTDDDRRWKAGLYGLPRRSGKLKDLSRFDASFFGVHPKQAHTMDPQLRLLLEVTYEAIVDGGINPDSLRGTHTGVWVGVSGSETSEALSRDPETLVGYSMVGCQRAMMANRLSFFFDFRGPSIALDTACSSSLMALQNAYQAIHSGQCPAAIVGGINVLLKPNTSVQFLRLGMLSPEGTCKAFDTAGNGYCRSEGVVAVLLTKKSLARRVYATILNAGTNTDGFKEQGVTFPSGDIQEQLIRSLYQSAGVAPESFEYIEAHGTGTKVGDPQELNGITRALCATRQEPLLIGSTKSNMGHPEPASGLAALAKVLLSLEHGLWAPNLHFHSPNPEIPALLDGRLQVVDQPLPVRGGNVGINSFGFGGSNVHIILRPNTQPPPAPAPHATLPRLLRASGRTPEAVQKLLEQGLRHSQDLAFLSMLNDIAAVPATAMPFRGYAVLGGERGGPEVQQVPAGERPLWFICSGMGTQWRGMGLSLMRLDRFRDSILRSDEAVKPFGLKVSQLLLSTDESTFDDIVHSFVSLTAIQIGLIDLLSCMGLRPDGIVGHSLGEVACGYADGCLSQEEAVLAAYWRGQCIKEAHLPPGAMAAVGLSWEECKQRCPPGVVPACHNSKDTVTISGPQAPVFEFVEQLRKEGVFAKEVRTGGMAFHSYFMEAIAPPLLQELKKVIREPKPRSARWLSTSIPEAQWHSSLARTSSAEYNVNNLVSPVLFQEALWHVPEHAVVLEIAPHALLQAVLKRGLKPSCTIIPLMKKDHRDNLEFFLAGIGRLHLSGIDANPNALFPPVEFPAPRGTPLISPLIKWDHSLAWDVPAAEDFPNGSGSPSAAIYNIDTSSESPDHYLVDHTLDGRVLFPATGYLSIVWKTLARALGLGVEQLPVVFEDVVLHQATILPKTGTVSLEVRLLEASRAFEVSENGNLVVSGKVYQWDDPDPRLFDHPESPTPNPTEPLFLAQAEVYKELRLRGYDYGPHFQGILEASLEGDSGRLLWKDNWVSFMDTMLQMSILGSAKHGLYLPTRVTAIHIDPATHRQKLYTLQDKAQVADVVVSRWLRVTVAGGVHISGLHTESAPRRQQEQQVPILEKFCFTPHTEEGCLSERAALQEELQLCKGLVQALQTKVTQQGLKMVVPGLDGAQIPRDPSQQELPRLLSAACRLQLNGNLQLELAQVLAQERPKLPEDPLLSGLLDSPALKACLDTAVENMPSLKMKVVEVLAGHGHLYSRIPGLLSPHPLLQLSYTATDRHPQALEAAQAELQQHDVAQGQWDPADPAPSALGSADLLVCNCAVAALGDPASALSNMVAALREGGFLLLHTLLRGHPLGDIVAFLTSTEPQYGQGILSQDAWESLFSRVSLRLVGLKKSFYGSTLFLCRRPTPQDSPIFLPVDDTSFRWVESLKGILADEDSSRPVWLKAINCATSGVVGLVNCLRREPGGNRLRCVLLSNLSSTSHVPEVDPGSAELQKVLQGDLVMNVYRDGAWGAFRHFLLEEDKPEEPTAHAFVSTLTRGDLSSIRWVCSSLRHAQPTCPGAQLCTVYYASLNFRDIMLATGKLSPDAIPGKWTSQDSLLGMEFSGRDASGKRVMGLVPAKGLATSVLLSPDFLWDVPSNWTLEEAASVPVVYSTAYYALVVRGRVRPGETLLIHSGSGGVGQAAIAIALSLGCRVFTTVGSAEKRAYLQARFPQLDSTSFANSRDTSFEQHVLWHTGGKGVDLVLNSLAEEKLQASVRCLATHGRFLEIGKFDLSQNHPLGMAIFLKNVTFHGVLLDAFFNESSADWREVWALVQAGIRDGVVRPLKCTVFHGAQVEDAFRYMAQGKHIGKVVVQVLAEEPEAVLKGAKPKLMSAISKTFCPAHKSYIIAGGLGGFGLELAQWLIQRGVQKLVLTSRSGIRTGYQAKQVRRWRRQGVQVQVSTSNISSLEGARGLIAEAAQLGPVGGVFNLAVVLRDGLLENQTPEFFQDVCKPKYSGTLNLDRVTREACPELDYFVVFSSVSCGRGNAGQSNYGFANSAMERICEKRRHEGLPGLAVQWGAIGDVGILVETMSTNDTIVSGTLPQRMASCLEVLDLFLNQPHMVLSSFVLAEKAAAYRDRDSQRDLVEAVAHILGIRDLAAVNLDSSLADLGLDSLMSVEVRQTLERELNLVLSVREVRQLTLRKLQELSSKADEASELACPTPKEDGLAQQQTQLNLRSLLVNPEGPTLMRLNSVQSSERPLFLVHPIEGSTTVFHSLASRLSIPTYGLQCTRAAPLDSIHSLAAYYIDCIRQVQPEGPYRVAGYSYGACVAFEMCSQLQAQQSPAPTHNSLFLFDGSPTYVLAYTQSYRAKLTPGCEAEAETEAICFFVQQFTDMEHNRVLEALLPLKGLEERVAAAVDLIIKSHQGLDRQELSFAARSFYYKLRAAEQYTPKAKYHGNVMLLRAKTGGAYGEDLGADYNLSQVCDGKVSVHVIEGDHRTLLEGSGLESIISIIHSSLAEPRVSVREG
# Procedure, shortened: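 Scintillation proximity format: in-house full-length enzyme, 300 ng per well, pH 7.5 phosphate/DTT buffer, ³H-acetyl-CoA and malonyl-CoA. Emission counted on LEADseeker at 610 nm at least 24 h after stopping.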
# [2] = molecular target: Fatty Acid Synthase Keto-reductase Domain (FASN KR) (Homo sapiens, UniProt P49327); experiment: Fatty Acid Synthase keto-reductase domain (FASN KR) inhibition, NADPH oxidation at 340 nm
# Fatty Acid Synthase Keto-reductase Domain (FASN KR), sequence (P49327 whole entry, the tested form may be a part): as the sequence (P49327 whole entry) above
# Procedure: After 20 minutes incubation at room temperature the plate was measured again (T2).
# The decrease in absorbance was calculated as (Absorbance before incubation T1)−(Absorbance following incubation T2).
# A plot of Controlmin versus test compound concentration was fitted to a 4-parameter logistic curve using a non-linear least squares regression method.
# [3] = test system: LNCaP-Vancouver prostate cells; experiment: In vitro LNCaP Vancouver prostate cell proliferation assay in lipid reduced medium; type: cell-based; settings: read-out: pIC50 LNCaP_Vancouver prostate cell (converted)
# [4] = test system: A2780 ovarian cells; experiment: A2780 ovarian cell proliferation assay in lipid reduced medium, with palmitate (MTT); type: cell-based; settings: Homo sapiens, A2780, 96 h; read-out: pIC50 A2780 Ovarian Cell, With Palmitate (converted)
# Procedure, shortened: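 In this palmitate-supplemented format, compound dilutions (30 μM down to 0.01 μM) are added to cells in lipid-reduced serum with 25 μM palmitate, 0.2% fatty-acid-free BSA and 0.25% ethanol. After four days (96 h) MTT absorbance at 544 nm is recorded and fitted by minimum sum of squares.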
# [5] = test system: A2780 ovarian cells; experiment: A2780 ovarian cell proliferation assay in lipid reduced medium, without palmitate (MTT); type: cell-based; settings: Homo sapiens, A2780, 96 h; read-out: pIC50 A2780 Ovarian Cell, Without Palmitate (converted)
# [6] = test system: PC-3M-Luc-C6 prostate cells; experiment: In vitro PC-3M-Luc-C6 prostate cell proliferation assay in lipid reduced medium; type: cell-based; settings: 96 h, read-out: pIC50 PC-3M-Luc-C6 prostate cell (converted)
Structure (SMILES),inhibition at 10 µM [1] [%],IC50 [1] [nM],IC50 [2] [nM],IC50 [3] [nM],IC50 [4] [nM],IC50 [5] [nM],IC50 [6] [nM]
"O=C(C1CC1)N1CC(CN2C(=O)C3(CC3)N=C2c2ccc(-c3cccc(SC4CC4)c3)cc2F)C1 [compound 645, 6-{[1-(Cyclopropylcarbonyl)azetidin-3-yl]methyl}-5-[3′-(cyclopropylsulfanyl)-3-fluorobiphenyl-4-yl]-4,6-diazaspiro[2.4]hept-4-en-7-one]",100,275,676,3470,> 10000,~2040,1740
"NC(=O)c1cccc(-c2ccc(C3=NC4(CC4)C(=O)N3C[C@@H]3CCN(C(=O)C4CC4)C3)cc2)c1 [compound 494, 4′-(6-{[(3R)-1-(Cyclopropylcarbonyl)pyrrolidin-3-yl]methyl}-7-oxo-4,6-diazaspiro[2.4]hept-4-en-5-yl)biphenyl-3-carboxamide]",95,219,661,4680,> 10000,692,891
"Cc1ccc2nc(-c3ccc(C4=NC5(CC5)C(=O)N4CC4CN(C(=O)C5CC5)C4)c(F)c3)sc2c1 [compound 270, 6-((1-(cyclopropanecarbonyl)azetidin-3-yl)methyl)-5-(2-fluoro-4-(6-methylbenzo[d]thiazol-2-yl)phenyl)-4,6-diazaspiro[2.4]hept-4-en-7-one]",102,35.5,166,195,~5500,~27.5,34.7
"O=C(C1CC1)N1CC[C@@H](CN2C(=O)C3(CC3)N=C2c2ccc(-c3cccc4ncccc34)cc2)C1 [compound 310, (R)-6-((1-(cyclopropanecarbonyl)pyrrolidin-3-yl)methyl)-5-(4-(quinolin-5-yl)phenyl)-4,6-diazaspiro[2.4]hept-4-en-7-one]",102,39.8,60.3,813,> 6170,589,~324
"N#Cc1ccc2ccc(-c3ccc(C4=NC5(CC5)C(=O)N4CC4CN(C(=O)C5(O)CC5)C4)c(F)c3)cc2c1 [compound 621, 7-{3-Fluoro-4-[6-({1-[(1-hydroxycyclopropyl)carbonyl]azetidin-3-yl}methyl)-7-oxo-4,6-diazaspiro[2.4]hept-4-en-5-yl]phenyl}naphthalene-2-carbonitrile]",92,617,513,2140,6170,708,437
"O=C(C1CC1)N1CC(CN2C(=O)C3(CC3)N=C2c2ccc(-c3ccc4ccccc4c3)cc2F)C1 [compound 368, 6-((1-(1-cyclopropanecarbonyl)azetidin-3-yl)methyl)-5-(2-fluoro-4-(naphthalen-2-yl)phenyl)-4,6-diazaspiro[2.4]hept-4-en-7-one]",90,28.2,58.9,214,4470,21.4,28.8
"Cc1cc2cc(-c3ccc(C4=NC5(CC5)C(=O)N4C[C@@H]4CCN(C(=O)C5CC5)C4)cc3)ccc2[nH]1 [compound 214, (R)-6-((1-(cyclopropanecarbonyl)pyrrolidin-3-yl)methyl)-5-(4-(2-methyl-1H-indol-5-yl)phenyl)-4,6-diazaspiro[2.4]hept-4-en-7-one]",99,22.4,81.3,363,> 10000,~64.6,66.1
"O=C(C1CC1)N1CC[C@@H](CN2C(=O)C3(CC3)N=C2c2ccc(-c3cccc4[nH]ncc34)c(F)c2)C1 [compound 237, (R)-6-((1-(cyclopropanecarbonyl)pyrrolidin-3-yl)methyl)-5-(3-fluoro-4-(1H-indazol-4-yl)phenyl)-4,6-diazaspiro[2.4]hept-4-en-7-one]",100,79.4,120,631,> 10000,35.5,~74.1
"Cn1ccc2ccc(-c3ccc(C4=NC5(CC5)C(=O)N4CC4CN(C(=O)C5CC5)C4)cc3)cc21 [compound 541, 6-{[1-(Cyclopropylcarbonyl)azetidin-3-yl]methyl}-5-[4-(1-methyl-1H-indol-6-yl)phenyl]-4,6-diazaspiro[2.4]hept-4-en-7-one]",100,110,339,~1020,> 10000,282,309

# Next, values leading:
inhibition at 10 µM [1] [%],IC50 [1] [nM],IC50 [2] [nM],IC50 [3] [nM],IC50 [4] [nM],IC50 [5] [nM],IC50 [6] [nM],Structure (SMILES)
102,34.7,34.7,~33.9,> 10000,~3.89,6.46,Cn1ncc2cc(-c3ccc(C4=NC5(CC5)C(=O)N4C[C@@H]4CCN(C(=O)C5(O)CC5)C4)cc3)ccc21 [compound 200]
97,427,631,2570,> 10000,389,501,"Cc1cc(-c2ccc(C3=NC4(CC4)C(=O)N3CC3CN(C(=O)C4CC4)C3)c(F)c2)cc2cnn(C)c12 [compound 520, 6-{[1-(Cyclopropylcarbonyl)azetidin-3-yl]methyl}-5-[4-(1,7-dimethyl-1H-indazol-5-yl)-2-fluorophenyl]-4,6-diazaspiro[2.4]hept-4-en-7-one]"
103,45.7,~53.7,13.8,> 10000,~2.88,~7.08,"Cc1cc(-c2ccc3c(cnn3C)c2)ccc1C1=NC2(CC2)C(=O)N1C[C@@H]1CCN(C(=O)C2(C)CC2)C1 [compound 265, (R)-5-(2-methyl-4-(1-methyl-1H-indazol-5-yl)phenyl)-6-((1-(1-methylcyclopropanecarbonyl)pyrrolidin-3-yl)methyl)-4,6-diazaspiro[2.4]hept-4-en-7-one]"
91,135,170,646,6610,63.1,83.2,"Cn1ncc2cc(-c3ccc(C4=NC5(CC5)C(=O)N4CC4CN(C(=O)C5CC5)C4)c(Cl)c3)ccc21 [compound 584, 5-[2-Chloro-4-(1-methyl-1H-indazol-5-yl)phenyl]-6-{[1-(cyclopropylcarbonyl)azetidin-3-yl]methyl}-4,6-diazaspiro[2.4]hept-4-en-7-one]"
107,26.9,53.7,537,> 10000,~107,77.6,Cc1cc(-c2ccc3sccc3c2)ccc1C1=NC2(CC2)C(=O)N1CC1CN(C(=O)C2CC2)C1 [compound 288]
100,30.9,51.3,77.6,> 10000,3.16,14.8,"Cn1cc(-c2ccc(-c3ccc(C4=NC5(CC5)C(=O)N4CC4CN(C(=O)C5(C)CC5)C4)c(F)c3)cc2)cn1 [compound 358, 5-(3-fluoro-4′-(1-methyl-1H-pyrazol-4-yl)-[1,1′-biphenyl]-4-yl)-6-((1-(1-methylcyclopropanecarbonyl)azetidin-3-yl)methyl)-4,6-diazaspiro[2.4]hept-4-en-7-one]"
99,25.1,66.1,55,> 10000,~6.76,26.9,"Cn1cc(-c2ccc(-c3ccc(C4=NC5(CC5)C(=O)N4CC4CN(C(=O)C5(O)CC5)C4)c(F)c3)cc2)cn1 [compound 382, 5-(3-fluoro-4′-(1-methyl-1H-pyrazol-4-yl)-[1,1′-biphenyl]-4-yl)-6-((1-(1-hydroxycyclopropanecarbonyl)azetidin-3-yl)methyl)-4,6-diazaspiro[2.4]hept-4-en-7-one]"
102,158,537,1100,> 10000,646,178,"Cn1nc(Cl)c2cc(-c3ccc(C4=NC5(CC5)C(=O)N4CC4CN(C(=O)C5CC5)C4)c(F)c3)ccc21 [compound 607, 5-[4-(3-Chloro-1-methyl-1H-indazol-5-yl)-2-fluorophenyl]-6-{[1-(cyclopropylcarbonyl)azetidin-3-yl]methyl}-4,6-diazaspiro[2.4]hept-4-en-7-one]"
97,35.5,27.5,64.6,> 10000,12,14.1,"O=C(C1CC1)N1CC[C@@H](CN2C(=O)C3(CC3)N=C2c2ccc(-c3ccc4[nH]ncc4c3)cc2F)C1 [compound 253, (R)-6-((1-(cyclopropanecarbonyl)pyrrolidin-3-yl)methyl)-5-(2-fluoro-4-(1H-indazol-5-yl)phenyl)-4,6-diazaspiro[2.4]hept-4-en-7-one]"
